Test results published in US20240158392A1 (Janssen Biotech, Inc., priority 2021, published 2024).

How the values were obtained:
SIK2 [1] = target: T1, SIK2 (Homo sapiens, UniProt Q9H0K1); experiment: SIK2 Enzymatic Assay Version 1 (ADP Glo); format: biochemical; conditions: enzyme 0.6 nM, 160 μM ATP and 140 μM HDAC5tide (each 2× final concentration); 30 minutes pre-incubation, 4 hours; ADPGlo luminescence; read-out: SIK2 ADP Glo IC50 (μM) (Test Example 1)
How it was run: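 Kinase activity read as ADP production by ADP-Glo luminescence, all steps at room temperature. Compound and SIK2 (0.6 nM, a 2× concentration) were preincubated 30 min; ATP-only wells lacking peptide were the negative control; depletion 40 min, detection ≥30 min.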

SIK2 [2] = target: T1, SIK2; experiment: SIK2 Enzymatic Assay High Version 2 (High ATP); format: biochemical
How it was run: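 At room temperature, enzyme (6 nM, 2× final) was preincubated with compound for 30 min, then 6 mM ATP and 400 μM HDAC5tide (both 2× final) were added for 2 h. ADP formed was measured by ADP-Glo Max (2 h reagent, 1 h detection) using luminescence.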

T1 sequence (Q9H0K1 whole entry, species assumed): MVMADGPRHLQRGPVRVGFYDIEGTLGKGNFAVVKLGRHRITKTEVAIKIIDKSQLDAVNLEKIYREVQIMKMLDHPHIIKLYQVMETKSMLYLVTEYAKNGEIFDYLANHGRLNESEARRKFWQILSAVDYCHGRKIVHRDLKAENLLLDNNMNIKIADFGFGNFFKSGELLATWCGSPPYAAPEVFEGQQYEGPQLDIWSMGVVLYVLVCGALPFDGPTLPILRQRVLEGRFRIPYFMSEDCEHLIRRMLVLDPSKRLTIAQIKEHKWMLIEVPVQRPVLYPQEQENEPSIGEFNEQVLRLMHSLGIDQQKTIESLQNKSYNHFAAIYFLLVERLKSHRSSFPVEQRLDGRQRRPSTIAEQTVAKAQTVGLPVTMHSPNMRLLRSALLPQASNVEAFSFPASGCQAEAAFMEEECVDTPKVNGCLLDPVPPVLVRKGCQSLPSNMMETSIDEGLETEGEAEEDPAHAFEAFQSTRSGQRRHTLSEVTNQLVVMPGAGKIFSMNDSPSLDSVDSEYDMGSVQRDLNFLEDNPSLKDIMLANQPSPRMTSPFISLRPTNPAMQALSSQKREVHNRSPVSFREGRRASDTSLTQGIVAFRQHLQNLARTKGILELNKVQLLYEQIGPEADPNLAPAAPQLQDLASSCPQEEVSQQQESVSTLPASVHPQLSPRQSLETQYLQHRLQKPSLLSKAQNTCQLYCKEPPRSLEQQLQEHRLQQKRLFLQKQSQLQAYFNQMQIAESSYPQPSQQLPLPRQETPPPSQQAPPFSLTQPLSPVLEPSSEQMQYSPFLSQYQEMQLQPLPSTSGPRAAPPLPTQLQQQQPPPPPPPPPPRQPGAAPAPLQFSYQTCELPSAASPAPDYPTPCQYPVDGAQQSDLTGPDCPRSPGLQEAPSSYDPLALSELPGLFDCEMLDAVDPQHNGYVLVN

Row | IC50 (SIK2 [1]) [µM] | IC50 (SIK2 [2]) [nM] | SMILES
1 | 0.00471 | 93.3 | Cc1cc(-c2ccn3nc(Nc4cnn(C)c4)cc3c2)c(OC2CN(C)C2)cn1 [Example 568, 5-[2-methyl-5-(1-methylazetidin-3-yl)oxy-4-pyridyl]-N-(1-methylpyrazol-4-yl)pyrazolo[1,5-a]pyridin-2-amine]
2 | 0.000435 | 2.58 | N#Cc1cc(-c2ccn3nc(NC(=O)C4CC4)cc3c2)c(O[C@@H]2CNC[C@H](C(F)(F)F)C2)cn1 [Example 95, N-[5-[2-cyano-5-[[(3S,5R)-5-(trifluoromethyl)-3-piperidyl]oxy]-4-pyridyl]pyrazolo[1,5-a]pyridin-2-yl]cyclopropanecarboxamide]
3 | 0.000725 | 29.9 | N#Cc1cc(-c2ccn3nc(NC(=O)C4CC4)cc3c2)c(O[C@H]2CCN(C3CC3)C2)cn1 [Example 7, N-[5-[2-cyano-5-[(3S)-1-cyclopropylpyrrolidin-3-yl]oxy-4-pyridyl]pyrazolo[1,5-a]pyridin-2-yl]cyclopropanecarboxamide]
4 | 0.00609 | 114 | N#Cc1cc(-c2ccn3nc(NC(=O)C4CC4)cc3c2)c(OC[C@H](O)C(F)(F)F)cn1 [Example 97, N-[5-[2-cyano-5-[(2S)-3,3,3-trifluoro-2-hydroxy-propoxy]-4-pyridyl]pyrazolo[1,5-a]pyridin-2-yl]cyclopropanecarboxamide]
5 | 0.000443 | 8.45 | N#Cc1cc(-c2ccn3nc(NC(=O)C4CC4)cc3c2)c(OC[C@H]2C[C@@H](N)C2)cn1 [Example 175, N-(5-(5-(((1s,3s)-3-aminocyclobutyl)methoxy)-2-cyanopyridin-4-yl)pyrazolo[1,5-a]pyridin-2-yl)cyclopropanecarboxamide]
6 | 0.00152 | 36 | CN1CCO[C@H](COc2cnc(C#N)cc2-c2ccn3nc(NC(=O)C4CC4)cc3c2)C1 [Example 39, N-[5-[2-cyano-5-[[(2S)-4-methylmorpholin-2-yl]methoxy]-4-pyridyl]pyrazolo[1,5-a]pyridin-2-yl]cyclopropanecarboxamide]
7 | 0.0033 | 72.9 | Cc1cc(-c2ccn3nc(NC(=O)C4CC4)cc3c2)c(O[C@H]2CCN(C)C2)cn1 [Example 139, N-[5-[2-methyl-5-[(3S)-1-methylpyrrolidin-3-yl]oxy-4-pyridyl]pyrazolo[1,5-a]pyridin-2-yl]cyclopropanecarboxamide]
8 | 0.0022 | 40.1 | CN1CC[C@@H](COc2cnc(C#N)cc2-c2ccn3nc(Nc4ccccn4)cc3c2)C1 [Example 107, 5-[[(3R)-1-methylpyrrolidin-3-yl]methoxy]-4-[2-(2-pyridylamino)pyrazolo[1,5-a]pyridin-5-yl]pyridine-2-carbonitrile]
9 | 0.000381 | 7.74 | N#Cc1cc(-c2ccn3nc(NC(=O)C4CC4)cc3c2)c(O[C@H]2CCN(CC(F)(F)F)C2)cn1 [Example 5, N-[5-[2-cyano-5-[(3S)-1-(2,2,2-trifluoroethyl)pyrrolidin-3-yl]oxy-4-pyridyl]pyrazolo[1,5-a]pyridin-2-yl]cyclopropanecarboxamide]
10 | 0.0038 | 68.2 | O=C(Nc1cc2cc(-c3cc(OC(F)F)ncc3OC[C@@H]3CNCCO3)ccn2n1)C1CC1 [Example 503, N-[5-[2-(difluoromethoxy)-5-[[(2S)-morpholin-2-yl]methoxy]-4-pyridyl]pyrazolo[1,5-a]pyridin-2-yl]cyclopropanecarboxamide]
11 | 0.0027 | 39.9 | N#Cc1cc(-c2ccn3nc(NC(=O)C4CC4)cc3c2)c(O[C@@H]2CCNCC2(F)F)cn1 [Example 15, N-[5-[2-cyano-5-[[(4R)-3,3-difluoro-4-piperidyl]oxy]-4-pyridyl]pyrazolo[1,5-a]pyridin-2-yl]cyclopropanecarboxamide]
12 | 0.00263 | 21.9 | N#Cc1ccc(OC[C@H]2CNCCO2)c(-c2ccn3nc(NC(=O)C4CC4)cc3c2)c1 [Example 101, N-[5-[5-cyano-2-[[(2R)-morpholin-2-yl]methoxy]phenyl]pyrazolo[1,5-a]pyridin-2-yl]cyclopropanecarboxamide]
13 | 0.014 | 305 | CN1CCC[C@H](COc2cnc(C#N)cc2-c2ccn3nc(NC(=O)C4CC4)cc3c2)C1 [Example 38, (S)—N-(5-(2-cyano-5-((1-methylpiperidin-3-yl)methoxy)pyridin-4-yl)pyrazolo[1,5-a]pyridin-2-yl)cyclopropanecarboxamide]
14 | 0.00124 | 19.5 | N#Cc1cc(-c2ccn3nc(NC(=O)C4CC4)cc3c2)c(OC2CN(CC(F)(F)F)C2)cn1 [Example 590, N-[5-[2-cyano-5-[1-(2,2,2-trifluoroethyl)azetidin-3-yl]oxy-4-pyridyl]pyrazolo[1,5-a]pyridin-2-yl]cyclopropanecarboxamide]
15 | 0.00381 | 87 | N#Cc1cc(-c2ccn3nc(NC(=O)C4CC4)cc3c2)c(OC2CC3(CNC3)C2)cn1 [Example 587, N-[5-[5-(6-azaspiro[3.3]heptan-2-yloxy)-2-cyano-4-pyridyl]pyrazolo[1,5-a]pyridin-2-yl]cyclopropanecarboxamide]
16 | 0.00422 | 116 | N#Cc1cc(-c2ccn3nc(NC(=O)C4CC4)cc3c2)c(O[C@H]2CCN(Cc3ccccn3)C2)cn1 [Example 109, (S)—N-[5-[2-cyano-5-[(3S)-1-(2-pyridylmethyl)pyrrolidin-3-yl]oxy-4-pyridyl]pyrazolo[1,5-a]pyridin-2-yl]cyclopropanecarboxamide]
17 | 0.00847 | 167 | C[C@@H](O)COc1cnc(C#N)cc1-c1ccn2nc(NC(=O)C3CC3)cc2c1 [Example 94, N-[5-[2-cyano-5-[(2R)-2-hydroxypropoxy]-4-pyridyl]pyrazolo[1,5-a]pyridin-2-yl]cyclopropanecarboxamide]
18 | 0.000373 | 7.51 | N#Cc1cc(-c2ccn3nc(NC(=O)C4CC4)cc3c2)c(O[C@@H]2CCN[C@H](C(F)(F)F)C2)cn1 (single isomer, unassigned) [Example 8, N-(5-(2-cyano-5-(((2*S,4*R)-2-(trifluoromethyl)piperidin-4-yl)oxy)pyridin-4-yl)pyrazolo[1,5-a]pyridin-2-yl)cyclopropanecarboxamide]
19 | 0.00196 | 55.5 | N#Cc1cc(-c2ccn3nc(NC(=O)C4CC4)cc3c2)c(OC[C@H]2C[C@@H](Nc3ccccn3)C2)cn1 [Example 176, cis-N-[5-[2-cyano-5-[[3-(2-pyridylamino)cyclobutyl]methoxy]-4-pyridyl]pyrazolo[1,5-a]pyridin-2-yl]cyclopropanecarboxamide]

Row | SMILES | IC50 (SIK2 [1]) [µM] | IC50 (SIK2 [2]) [nM]
20 | CN1[C@@H]2COC[C@H]1CC(Nc1cnc(C#N)cc1-c1ccn3nc(NC(=O)C4CC4)cc3c1)C2 (stereo partly drawn) [Example 565, N-[5-[2-cyano-5-[[(1R,5S)-9-methyl-3-oxa-9-azabicyclo[3.3.1]nonan-7-yl]amino]-4-pyridyl]pyrazolo[1,5-a]pyridin-2-yl]cyclopropanecarboxamide] | 0.00384 | 88.2
21 | N#Cc1cc(-c2ccn3nc(NC(=O)C4CC4)cc3c2)c(O[C@H]2C[C@H]3CC[C@@H](C2)N3)cn1 [Example 82, (3-endo)-N-(5-(5-(((1R,3r,5S)-8-azabicyclo[3.2.1]octan-3-yl)oxy)-2-cyanopyridin-4-yl)pyrazolo[1,5-a]pyridin-2-yl)cyclopropanecarboxamide] | 0.000268 | 5.07
